Where two headings read alike, the source gives them in different places.
Target: T1, mTOR (Homo sapiens, UniProt P42345)
T1 construct: FLAG; made in house
Experiment: In Vitro mTOR Kinase Assay (Echo), Test (a)(ii)
Assay type: biochemical
Text: (a)(ii) In Vitro mTOR Kinase Assay (Echo)
The assay used AlphaScreen technology (Gray et al., Analytical Biochemistry, 2003, 313: 234-245) to determine the ability of test compounds to inhibit phosphorylation by recombinant mTOR.
A C-terminal truncation of mTOR encompassing amino acid residues 1362 to 2549 of mTOR (EMBL Accession No. L34075) was stably expressed as a FLAG-tagged fusion in HEK293 cells as described by Vilella-Bach et al., […], 1999, 274, 4266-4272. The HEK293 FLAG-tagged mTOR (1362-2549) stable cell line was routinely maintained at 37° C. with 5% CO2 up to a confluency of 70-90% in Dulbecco's modified Eagle's growth medium (DMEM; Invitrogen Limited, Paisley, UK Catalogue No. 41966-029) containing 10% heat-inactivated foetal calf serum (FCS; Sigma, Poole, Dorset, UK, Catalogue No. F0392), 1% L-glutamine (Gibco, Catalogue No. 25030-024) and 2 mg/ml Geneticin (G418 sulfate; Invitrogen Limited, UK Catalogue No. 1013 1-027). Following expression in the mammalian HEK293 cell line, expressed protein was purified using the FLAG epitope tag using standard purification techniques.
Aliquots (120 nl […]) of each compound dilution were acoustically dispensed placed using a Labcyte Echo 550 into a well of a Greiner 384-well low volume (LV) white polystyrene plate (Greiner Bio-one).
These assay solutions were incubated for 2 hours at room temperature.
Each reaction was stopped by the addition of […] of a mixture of EDTA (50 mM), bovine serum albumin (BSA; 0.5 mg/mL) and Tris-HCl pH 7.4 buffer (50 mM) containing p70 S6 Kinase (T389) 1A5 Monoclonal Antibody (Cell Signalling Technology, Catalogue No. 9206B) and AlphaScreen Streptavidin donor and Protein A acceptor beads (200 ng; Perkin Elmer, Catalogue No. 6760002B and 6760137R respectively) were added and the assay plates were left overnight at room temperature in the dark. The resultant signals arising from laser light excitation at 680 nm were read using a Packard Envision instrument.
The phosphorylated biotinylated peptide that is associated with AlphaScreen Streptavidin donor beads forms a complex with the p70 S6 Kinase (T389) 1A5 Monoclonal Antibody that is associated with Alphascreen Protein A acceptor beads. Upon laser light excitation at 680 nm, the donor bead: acceptor bead complex produces a signal that can be measured. Accordingly, the presence of mTOR kinase activity results in an assay signal. In the presence of an mTOR kinase inhibitor, signal strength is reduced.
mTOR enzyme inhibition for a given test compound was expressed as an IC50 value.

[1] = table of enzyme assay Test (a)(ii), read-out: Test (a)(ii) IC50
[2] = read-out: mTOR Kinase Assay (Echo)

T1 sequence (P42345 1362-2549): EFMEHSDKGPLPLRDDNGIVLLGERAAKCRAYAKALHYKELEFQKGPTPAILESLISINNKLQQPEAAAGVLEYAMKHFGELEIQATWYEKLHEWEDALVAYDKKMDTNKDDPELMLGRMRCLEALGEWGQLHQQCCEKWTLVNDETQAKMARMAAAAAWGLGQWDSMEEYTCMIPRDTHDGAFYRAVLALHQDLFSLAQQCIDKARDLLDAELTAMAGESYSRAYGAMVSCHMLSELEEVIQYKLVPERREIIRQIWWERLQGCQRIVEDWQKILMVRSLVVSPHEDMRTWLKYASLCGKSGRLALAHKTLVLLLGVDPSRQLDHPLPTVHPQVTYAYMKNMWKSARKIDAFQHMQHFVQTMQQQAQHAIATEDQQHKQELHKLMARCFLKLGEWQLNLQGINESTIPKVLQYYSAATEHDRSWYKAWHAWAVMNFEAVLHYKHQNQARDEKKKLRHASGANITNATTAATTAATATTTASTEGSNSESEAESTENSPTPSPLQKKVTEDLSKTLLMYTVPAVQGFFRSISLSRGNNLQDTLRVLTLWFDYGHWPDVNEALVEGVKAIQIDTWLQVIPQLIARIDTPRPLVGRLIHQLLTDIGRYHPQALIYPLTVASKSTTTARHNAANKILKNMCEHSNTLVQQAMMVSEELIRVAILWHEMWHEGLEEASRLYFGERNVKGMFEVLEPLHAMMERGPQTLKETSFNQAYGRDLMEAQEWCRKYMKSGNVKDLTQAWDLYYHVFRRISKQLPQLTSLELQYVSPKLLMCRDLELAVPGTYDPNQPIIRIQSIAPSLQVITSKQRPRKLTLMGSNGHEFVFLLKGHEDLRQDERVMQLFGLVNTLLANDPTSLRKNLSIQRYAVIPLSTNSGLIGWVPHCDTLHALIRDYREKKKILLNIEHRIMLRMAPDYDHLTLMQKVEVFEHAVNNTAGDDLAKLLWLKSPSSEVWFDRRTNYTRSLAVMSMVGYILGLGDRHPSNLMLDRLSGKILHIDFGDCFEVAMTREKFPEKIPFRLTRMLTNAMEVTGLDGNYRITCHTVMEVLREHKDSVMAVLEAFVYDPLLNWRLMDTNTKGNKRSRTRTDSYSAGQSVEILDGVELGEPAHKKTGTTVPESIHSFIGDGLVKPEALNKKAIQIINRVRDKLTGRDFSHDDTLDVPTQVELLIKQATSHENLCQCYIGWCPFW

IC50 [1] [nM]	IC50 [2] [nM]	Compound
–	2.76	CCNC(=O)Nc1ccc(-c2nc(N3CCOC[C@@H]3C)cc(C3(S(C)(=O)=O)CC3)n2)cc1 [Example 1, 3-Ethyl-1-[4-[4-[(3S)-3-methylmorpholin-4-yl]-6-(1-methylsulfonylcyclopropyl)pyrimidin-2-yl]phenyl]urea]
–	2.79	CNC(=O)Nc1ccc(-c2nc(N3CCOC[C@@H]3C)cc(C3(S(C)(=O)=O)CC3)n2)cc1 [Example 1a]
–	93.2	C[C@H]1COCCN1c1cc(C2(S(C)(=O)=O)CC2)nc(-c2ccc(NC(=O)NCc3cnn(C)c3)cc2)n1 [Example 2a, 1-[4-[4-[(3S)-3-methylmorpholin-4-yl]-6-(1-methylsulfonylcyclopropyl)pyrimidin-2-yl]phenyl]-3-[(1-methylpyrazol-4-yl)methyl]urea]
–	27.4	C[C@H]1COCCN1c1cc(C2(S(C)(=O)=O)CC2)nc(-c2ccc(NC(=O)NCC(C)(C)O)cc2)n1 [Example 2aa, 3-(2-hydroxy-2-methylpropyl)-1-[4-[4-[(3S)-3-methylmorpholin-4-yl]-6-(1-methylsulfonylcyclopropyl)pyrimidin-2-yl]phenyl]urea]
–	55.3	C[C@H]1COCCN1c1cc(C2(S(C)(=O)=O)CC2)nc(-c2ccc(NC(=O)NC3(CO)CC3)cc2)n1 [Example 2ab, 3-[1-(hydroxymethyl)cyclopropyl]-1-[4-[4-[(3S)-3-methylmorpholin-4-yl]-6-(1-methylsulfonylcyclopropyl)pyrimidin-2-yl]phenyl]urea]
–	6.41	C[C@H]1COCCN1c1cc(C2(S(C)(=O)=O)CC2)nc(-c2ccc(NC(=O)NC3COC3)cc2)n1 [Example 2ac, 1-[4-[4-[(3S)-3-methylmorpholin-4-yl]-6-(1-methylsulfonylcyclopropyl)pyrimidin-2-yl]phenyl]-3-(oxetan-3-yl)urea]
–	0.705	C[C@H]1COCCN1c1cc(C2(S(C)(=O)=O)CC2)nc(-c2ccc(NC(=O)Nc3ccn(C)n3)cc2)n1 [Example 2ad, 1-[4-[4-[(3S)-3-methylmorpholin-4-yl]-6-(1-methylsulfonylcyclopropyl)pyrimidin-2-yl]phenyl]-3-(1-methylpyrazol-3-yl)urea]
–	0.72	C[C@H]1COCCN1c1cc(C2(S(C)(=O)=O)CC2)nc(-c2ccc(NC(=O)Nc3ncns3)cc2)n1 [Example 2ae, 1-[4-[4-[(3S)-3-methylmorpholin-4-yl]-6-(1-methylsulfonylcyclopropyl)pyrimidin-2-yl]phenyl]-3-(1,2,4-thiadiazol-5-yl)urea]
–	46.2	C[C@H]1COCCN1c1cc(C2(S(C)(=O)=O)CC2)nc(-c2ccc(NC(=O)NCC#N)cc2)n1 [Example 2af, 3-(cyanomethyl)-1-[4-[4-[(3S)-3-methylmorpholin-4-yl]-6-(1-methylsulfonylcyclopropyl)pyrimidin-2-yl]phenyl]urea]
–	14.9	C[C@H]1COCCN1c1cc(C2(S(C)(=O)=O)CC2)nc(-c2ccc(NC(=O)NCc3ncn[nH]3)cc2)n1 [Example 2ag, 1-[4-[4-[(3S)-3-methylmorpholin-4-yl]-6-(1-methylsulfonylcyclopropyl)pyrimidin-2-yl]phenyl]-3-(2H-1,2,4-triazol-3-ylmethyl)urea]
1.86	1.21	C[C@H]1COCCN1c1cc(C2(S(C)(=O)=O)CC2)nc(-c2ccc(NC(=O)NC3CCC3)cc2)n1 [Example 2c, 3-cyclobutyl-1-[4-[4-[(3S)-3-methylmorpholin-4-yl]-6-(1-methylsulfonylcyclopropyl)pyrimidin-2-yl]phenyl]urea]
–	23.9	C[C@H]1COCCN1c1cc(C2(S(C)(=O)=O)CC2)nc(-c2ccc(NC(=O)NCc3ncc[nH]3)cc2)n1 [Example 2d, 3-(1H-imidazol-2-ylmethyl)-1-[4-[4-[(3S)-3-methylmorpholin-4-yl]-6-(1-methylsulfonylcyclopropyl)pyrimidin-2-yl]phenyl]urea]
–	279	C[C@H]1COCCN1c1cc(C2(S(C)(=O)=O)CC2)nc(-c2ccc(NC(=O)NCCN(C)C)cc2)n1 [Example 2e, 3-(2-dimethylaminoethyl)-1-[4-[4-[(3S)-3-methylmorpholin-4-yl]-6-(1-methylsulfonylcyclopropyl)pyrimidin-2-yl]phenyl]urea]
–	4.33	C[C@H]1COCCN1c1cc(C2(S(C)(=O)=O)CC2)nc(-c2ccc(NC(=O)NC(C)(C)CO)cc2)n1 [Example 2f, 3-(1-hydroxy-2-methyl-propan-2-yl)-1-[4-[4-[(3S)-3-methylmorpholin-4-yl]-6-(1-methylsulfonylcyclopropyl)pyrimidin-2-yl]phenyl]urea]
0.231	0.137	C[C@H]1COCCN1c1cc(C2(S(C)(=O)=O)CC2)nc(-c2ccc(NC(=O)Nc3ccon3)cc2)n1 [Example 2g, 1-[4-[4-[(3S)-3-methylmorpholin-4-yl]-6-(1-methylsulfonylcyclopropyl)pyrimidin-2-yl]phenyl]-3-(1,2-oxazol-3-yl)urea]
–	0.272	C[C@H]1COCCN1c1cc(C2(S(C)(=O)=O)CC2)nc(-c2ccc(NC(=O)Nc3ccccc3)cc2)n1 [Example 2h, 1-[4-[4-[(3S)-3-methylmorpholin-4-yl]-6-(1-methylsulfonylcyclopropyl)pyrimidin-2-yl]phenyl]-3-phenyl-urea]
–	2.07	C[C@H]1COCCN1c1cc(C2(S(C)(=O)=O)CC2)nc(-c2ccc(NC(=O)NCCO)cc2)n1 [Example 2i, 3-(2-hydroxyethyl)-1-[4-[4-[(3S)-3-methylmorpholin-4-yl]-6-(1-methylsulfonylcyclopropyl)pyrimidin-2-yl]phenyl]urea]
–	12	CC(C)NC(=O)Nc1ccc(-c2nc(N3CCOC[C@@H]3C)cc(C3(S(C)(=O)=O)CC3)n2)cc1 [Example 2j, 1-[4-[4-[(3S)-3-methylmorpholin-4-yl]-6-(1-methylsulfonylcyclopropyl)pyrimidin-2-yl]phenyl]-3-propan-2-yl-urea]
3.81	4.06	CCCNC(=O)Nc1ccc(-c2nc(N3CCOC[C@@H]3C)cc(C3(S(C)(=O)=O)CC3)n2)cc1 [Example 2k, 1-[4-[4-[(3S)-3-methylmorpholin-4-yl]-6-(1-methylsulfonylcyclopropyl)pyrimidin-2-yl]phenyl]-3-propyl-urea]
–	11.6	CC(C)CNC(=O)Nc1ccc(-c2nc(N3CCOC[C@@H]3C)cc(C3(S(C)(=O)=O)CC3)n2)cc1 [Example 2l, 1-[4-[4-[(3S)-3-methylmorpholin-4-yl]-6-(1-methylsulfonylcyclopropyl)pyrimidin-2-yl]phenyl]-3-(2-methylpropyl)urea]
–	5.89	C[C@H]1COCCN1c1cc(C2(S(C)(=O)=O)CC2)nc(-c2ccc(NC(=O)NCC3CC3)cc2)n1 [Example 2m, 3-(cyclopropylmethyl)-1-[4-[4-[(3S)-3-methylmorpholin-4-yl]-6-(1-methylsulfonylcyclopropyl)pyrimidin-2-yl]phenyl]urea]
–	8.44	CC(CO)NC(=O)Nc1ccc(-c2nc(N3CCOC[C@@H]3C)cc(C3(S(C)(=O)=O)CC3)n2)cc1 (stereo partly drawn) [Example 2n, 3-(1-hydroxypropan-2-yl)-1-[4-[4-[(3S)-3-methylmorpholin-4-yl]-6-(1-methylsulfonylcyclopropyl)pyrimidin-2-yl]phenyl]urea]
0.403	0.851	COc1ccc(NC(=O)Nc2ccc(-c3nc(N4CCOC[C@@H]4C)cc(C4(S(C)(=O)=O)CC4)n3)cc2)cn1 [Example 2o, 3-(6-methoxypyridin-3-yl)-1-[4-[4-[(3S)-3-methylmorpholin-4-yl]-6-(1-methylsulfonylcyclopropyl)pyrimidin-2-yl]phenyl]urea]

Compound	IC50 [1] [nM]	IC50 [2] [nM]
1-[4-[4-[1-(2,4-difluorophenyl)sulfonylcyclopro-pyl]-6-[(3S)-3-methylmorpholin-4-yl]pyrimidin-2-yl]phenyl]-3-(2-hydroxyethyl)urea [Example 57b]	4.57	–
3-(2,2-difluoroethyl)-1-[4-[4-[1-(2,4-difluorophenyl)sulfonylcyclopro-pyl]-6-[(3S)-3-methylmorpholin-4-yl]pyrimidin-2-yl]phenyl]urea [Example 57d]	10	–
3-(3-hydroxypropyl)-1-[4-[4-[1-(3-hydroxypropylsulfonyl)cyclopro-pyl]-6-[(3S)-3-methylmorpholin-4-yl]pyrimidin-2-yl]phenyl]thiourea [Example 37f]	120	–

— patent US20090018134A1, “Compounds - 945” (AstraZeneca AB, priority 2007, published 2009)
